In patent US8697739B2, “Bicyclic acetyl-CoA carboxylase inhibitors and uses thereof” (Novartis AG, priority 2010, dated 2014) one finds IC50 data, which are given here for 25 compounds.

SMILES strings stand for the structures.

In this test the target is T1, human acetyl-CoA carboxylase 2 (ACC2) (Homo sapiens, UniProt O00763).
T1 construct: The cDNA encoding amino acids 144 to 2458 of human acetyl-CoA carboxylase 2; made in house; host or cells: Sf9 insect cells (baculovirus, pFastBac1)
T1 sequence (O00763 144-2458): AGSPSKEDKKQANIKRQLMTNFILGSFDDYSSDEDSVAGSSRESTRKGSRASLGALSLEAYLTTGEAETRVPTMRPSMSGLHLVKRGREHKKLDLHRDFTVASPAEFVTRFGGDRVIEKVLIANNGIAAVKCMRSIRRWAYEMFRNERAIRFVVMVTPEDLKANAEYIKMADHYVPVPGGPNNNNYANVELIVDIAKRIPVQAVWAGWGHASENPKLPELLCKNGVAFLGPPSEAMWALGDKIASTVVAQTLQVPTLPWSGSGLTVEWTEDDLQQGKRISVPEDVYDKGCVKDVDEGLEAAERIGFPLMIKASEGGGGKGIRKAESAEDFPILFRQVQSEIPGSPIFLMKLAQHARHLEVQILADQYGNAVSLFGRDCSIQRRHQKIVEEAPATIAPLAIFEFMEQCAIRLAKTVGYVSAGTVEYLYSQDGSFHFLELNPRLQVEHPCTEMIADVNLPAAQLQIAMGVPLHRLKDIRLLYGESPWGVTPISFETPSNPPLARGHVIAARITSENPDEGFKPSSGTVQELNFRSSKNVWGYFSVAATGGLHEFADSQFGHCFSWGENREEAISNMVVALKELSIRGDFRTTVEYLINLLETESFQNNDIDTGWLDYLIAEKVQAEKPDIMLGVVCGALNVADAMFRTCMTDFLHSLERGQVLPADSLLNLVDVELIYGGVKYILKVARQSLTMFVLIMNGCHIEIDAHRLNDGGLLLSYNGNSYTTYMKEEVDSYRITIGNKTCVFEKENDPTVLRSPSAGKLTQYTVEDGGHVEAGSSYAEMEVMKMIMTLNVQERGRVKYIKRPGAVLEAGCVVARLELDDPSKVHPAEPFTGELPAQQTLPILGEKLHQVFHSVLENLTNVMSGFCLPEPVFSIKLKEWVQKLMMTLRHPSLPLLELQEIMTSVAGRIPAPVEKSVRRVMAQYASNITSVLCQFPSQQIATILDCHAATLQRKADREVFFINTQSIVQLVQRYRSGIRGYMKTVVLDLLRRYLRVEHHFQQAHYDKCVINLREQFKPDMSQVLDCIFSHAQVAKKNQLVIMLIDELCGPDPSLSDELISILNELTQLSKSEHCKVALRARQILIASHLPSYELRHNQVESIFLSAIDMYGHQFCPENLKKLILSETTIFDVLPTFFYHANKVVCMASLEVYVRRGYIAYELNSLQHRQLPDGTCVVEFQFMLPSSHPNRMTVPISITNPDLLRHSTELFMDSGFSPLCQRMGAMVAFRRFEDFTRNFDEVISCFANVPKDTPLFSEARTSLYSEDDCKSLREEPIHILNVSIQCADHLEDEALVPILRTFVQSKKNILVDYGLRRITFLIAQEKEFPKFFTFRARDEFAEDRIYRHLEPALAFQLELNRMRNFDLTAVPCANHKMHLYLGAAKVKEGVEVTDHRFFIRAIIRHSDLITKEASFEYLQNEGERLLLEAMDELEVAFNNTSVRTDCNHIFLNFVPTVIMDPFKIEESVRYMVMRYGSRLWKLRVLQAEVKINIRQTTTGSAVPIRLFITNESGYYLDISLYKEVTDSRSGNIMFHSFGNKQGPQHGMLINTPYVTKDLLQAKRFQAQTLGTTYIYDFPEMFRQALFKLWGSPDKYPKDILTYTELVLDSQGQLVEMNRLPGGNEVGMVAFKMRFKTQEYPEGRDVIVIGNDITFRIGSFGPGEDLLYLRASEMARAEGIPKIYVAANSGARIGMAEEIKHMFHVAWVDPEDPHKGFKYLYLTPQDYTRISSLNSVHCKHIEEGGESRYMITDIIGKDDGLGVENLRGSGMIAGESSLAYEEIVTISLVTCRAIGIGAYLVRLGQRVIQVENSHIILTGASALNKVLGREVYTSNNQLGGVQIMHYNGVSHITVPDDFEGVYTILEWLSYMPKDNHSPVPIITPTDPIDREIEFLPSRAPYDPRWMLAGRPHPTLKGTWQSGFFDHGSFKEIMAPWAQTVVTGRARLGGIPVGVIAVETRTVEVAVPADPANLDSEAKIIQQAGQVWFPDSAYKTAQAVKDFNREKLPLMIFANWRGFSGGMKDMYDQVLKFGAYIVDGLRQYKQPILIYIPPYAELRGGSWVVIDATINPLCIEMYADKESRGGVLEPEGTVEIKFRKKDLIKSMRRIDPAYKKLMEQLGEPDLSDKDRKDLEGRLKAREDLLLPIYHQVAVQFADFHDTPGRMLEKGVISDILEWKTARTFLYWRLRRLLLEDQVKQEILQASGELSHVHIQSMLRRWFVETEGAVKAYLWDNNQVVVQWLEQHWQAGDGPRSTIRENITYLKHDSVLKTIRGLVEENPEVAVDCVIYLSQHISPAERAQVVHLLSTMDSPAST
Description: Acetyl-CoA carboxylase enzyme assay (malonyl-CoA formation by LC/MS/MS). Type of test: biochemical. The settings on record: recombinant human ACC2 (aa 144-2458); read-out: IC50 ACC2. An excerpt: The cDNA encoding amino acids 144 to 2458 of human acetyl-CoA carboxylase 2 (ACC2, GenBank Accession #NM_001093) was cloned into the SalI and NotI sites of pFastBac1 (Invitrogen; Carlsbad, Calif.). The resulting plasmid was used to generate a recombinant ACC2 baculovirus that was amplified and titered according to the protocols in the Bac-to-Bac baculovirus expression system manual (Invitrogen). The titered virus was used to infect Sf9 cells grown in Ex-Cell 420 serum-free medium (JRH Biosciences; Lenexa, Kans.). At 48 hours post-infection, the cells were harvested and stored at −80° C. until purification. ACC2 was purified using ammonium sulfate precipitation and anion exchange chromatography.
The enzymatic assay was run as follows: 30 μL of reaction buffer (100 mM HEPES pH 7.5, 20 mM MgCl2, 20 mM potassium citrate, 2 mM DTT) was added to a 384-well microtiter plate followed by 2 μL of the test compound (or 100% DMSO control). ACC2 protein (10 μL of a 50 nM working solution) was added to plate, which was incubated at room temperature for 15 minutes. A 30 μL addition of substrate solution (50 μM acetyl-CoA, 120 μM ATP, 2 mM KHCO3) was used to initiate the reactions which were quenched with 6% acetic acid (40 μL). ACC catalyzed malonyl-CoA formation was detected by LC/MS/MS using a Cohesive Technologies LX Series multiplex LC/MSIMS system configured with four binary pumps (Agilent Technologies; Palo Alto, Calif.), a dual arm autosampler (Leap Technologies; Cary, N.C.), and one Quattro Micro triple quadrupole mass spectrometer (Waters, Milford, Mass.), all run by Aria Software version 1.5 (Cohesive Technologies; Franklin, Mass.). Four samples were injected (20 μL) onto four Phenosphere NEXT C18 30×2 mm 5 μm columns (Phenomenex; Torrance, Calif.), eluted by four separate pumps, running identical gradients, through a column switching manifold with the one outlet fitted to the electrospray (ESI) source. Malonyl-CoA was eluted with 5 mM ammonium acetate, pH 4.5 (Buffer A) and 100% acetonitrile (Buffer B) via a step gradient. Argon was used as the collision gas and the following species were monitored via MRM detection: malonyl-CoA (853.8>346.9), internal standard (A: [^13C3]-malonyl-CoA, 857>350). The lower limit of detection is 0.3 uM for malonyl-CoA in this assay.
A word on the IC50: it is the point on the concentration scale where inhibition reaches its midpoint. With `C[C@@H](NC(=O)[C@H]1CC[C@H](NS(=O)(=O)c2ccc3c(c2)NCCC3)CC1)c1ccc(F)cc1` [Example 151, (1r,4R)-N-((R)-1-(4-fluorophenyl)ethyl)-4-(1,2,3,4-tetrahydroquinoline-7-sulfonamido)cyclohexanecarboxamide], the IC50 stood at 47 nM.

Take `Cn1c(-c2ccc(CCC(=O)O)cc2)cc2ccc(S(=O)(=O)N[C@H]3CC[C@H](C(=O)N4CCC[C@H]4C(C)(C)C)CC3)cc21` [Example 399, 3-(4-(6-(N-((1S,4r)-4-((S)-2-tert-butylpyrrolidine-1-carbonyl)cyclohexyl)sulfamoyl)-1-methyl-1H-indol-2-yl)phenyl)propanoic acid]: the IC50 came out at 340 nM.

Consider `C[C@@H]1CNc2ncc(S(=O)(=O)N[C@H]3CC[C@H](C(=O)N[C@H](C)c4ccc(F)cc4)CC3)cc2N1` [Example 172, (1R,4R)-N-((R)-1-(4-fluorophenyl)ethyl)-4-((R)-2-methyl-1,2,3,4-tetrahydropyrido[3,2-b]pyrazine-7-sulfonamido)cyclohexanecarboxamide], for which the IC50 was determined as 212 nM.

Regarding `C[C@@H](NC(=O)[C@H]1CC[C@H](NS(=O)(=O)c2cnc3ccccc3c2)CC1)c1ccccc1` [Example 55, (1r,4R)-N-((R)-1-phenylethyl)-4-(quinoline-3-sulfonamido)cyclohexanecarboxamide], the IC50 stood at 134 nM.

As to `CCOC(=O)CCc1cc2ccc(S(=O)(=O)N[C@H]3CC[C@H](C(=O)N4CCCC4c4ccc(F)cc4)CC3)cc2n1C` (stereo partly shown) [Example 369, ethyl 3-(6-(N-((1r,4r)-4-(2-(4-fluorophenyl)pyrrolidine-1-carbonyl)cyclohexyl)sulfamoyl)-1-methyl-1H-indol-2-yl)propanoate], the IC50 was found to be 180 nM.

For `CCOc1ccc2cc(S(=O)(=O)N[C@H]3CC[C@H](C(=O)N[C@H](COP(=O)(O)O)c4ccccc4)CC3)ccc2n1` [Example 269, (S)-2-((1r,4S)-4-(2-ethoxyquinoline-6-sulfonamido)cyclohexanecarboxamido)-2-phenylethyl dihydrogen phosphate], the IC50 worked out at 25200 nM.

Consider `CCOC(=O)C1CCCN(C(=O)[C@H]2CC[C@H](NS(=O)(=O)c3ccc4cc(-c5ccc(F)cc5)n(C)c4c3)CC2)C1` (stereo partly shown) [Example 345, ethyl 1-((1r,4r)-4-(2-(4-fluorophenyl)-1-methyl-1H-indole-6-sulfonamido)cyclohexanecarbonyl)piperidine-3-carboxylate], for which the IC50 turned out to be 255 nM.

As to `Cc1cc(-c2ccc3cc(S(=O)(=O)N[C@H]4CC[C@H](C(=O)N[C@H](C)c5ccc(F)cc5)CC4)ccc3n2)ccn1` [Example 229, (1r,4R)-N-((R)-1-(4-fluorophenyl)ethyl)-4-(2-(2-methylpyridin-4-yl)quinoline-6-sulfonamido)cyclohexanecarboxamide], the IC50 was 20 nM.

As to `CC(C)OC(=O)c1ccc(NS(=O)(=O)c2ccc3[nH]c(Nc4cccc(F)c4)nc3c2)cc1` [Example 535, isopropyl 4-(2-(3-fluorophenylamino)-1H-benzo[d]imidazole-5-sulfonamido)benzoate], the IC50 is 225 nM.

As to `C[C@@H](NC(=O)[C@H]1CC[C@H](NS(=O)(=O)c2ccc3c(c2)CCC(C)(C)O3)CC1)c1ccc(F)cc1` [Example 144, (1r,4R)-4-(2,2-dimethylchroman-6-sulfonamido)-N-((R)-1-(4-fluorophenyl)ethyl)cyclohexanecarboxamide], the IC50 was 314 nM.

Consider `Cn1c(-c2ccccc2)c(Cl)c2ccc(S(=O)(=O)N[C@H]3CC[C@H](C(=O)N4CCN[C@H](C(F)(F)F)C4)CC3)cc21` [Example 21, 3-chloro-1-methyl-2-phenyl-N-((1S,4r)-4-((S)-3-(trifluoromethyl)piperazine-1-carbonyl)cyclohexyl)-1H-indole-6-sulfonamide], for which the IC50 is < 10 nM.

As to `Cc1cc(-c2ccc3cc(S(=O)(=O)N[C@H]4CC[C@H](C(=O)N5CCOC[C@@H]5C(C)C)CC4)ccc3n2)cc(C)n1` [Example 261, 2-(2,6-dimethylpyridin-4-yl)-N-((1S,4r)-4-((S)-3-isopropylmorpholine-4-carbonyl)cyclohexyl)quinoline-6-sulfonamide], the IC50 is 460 nM.

For `C[C@@H](NC(=O)[C@H]1CC[C@H](NS(=O)(=O)c2ccc3c(c2)N(C)CCN3C)CC1)c1ccc(F)cc1` [Example 133, (1r,4R)-4-(1,4-dimethyl-1,2,3,4-tetrahydroquinoxaline-6-sulfonamido)-N-((R)-1-(4-fluorophenyl)ethyl)cyclohexanecarboxamide], the IC50 came to 46 nM.

Turning to `CCOc1ccc2cc(S(=O)(=O)N[C@H]3CC[C@H](C(=O)N[C@H](CC(=O)OC(C)(C)C)c4ccccc4)CC3)ccc2n1` [Example 211, (R)-tert-butyl 3-((1r,4R)-4-(2-ethoxyquinoline-6-sulfonamido)cyclohexanecarboxamido)-3-phenylpropanoate], the IC50 was determined as 180 nM.

For the compound `COc1ccc(-c2nc3ccc(S(=O)(=O)Nc4ccc(C(=O)OC(C)C)cc4)cc3[nH]2)cc1` [Example 497, isopropyl 4-(2-(4-methoxyphenyl)-1H-benzo[d]imidazole-6-sulfonamido)benzoate], the IC50 was 762 nM.

`CC(C)OC(=O)[C@H]1CC[C@H](NS(=O)(=O)c2ccc3[nH]c(-c4ccc(C(C)O)cc4)nc3c2)CC1` (stereo partly shown) [Example 556, (1r,4r)-isopropyl 4-(2-(4-(1-hydroxyethyl)phenyl)-1H-benzo[d]imidazole-5-sulfonamido)cyclohexanecarboxylate]: the IC50 is 25 nM.

In the case of `C[C@@H](NC(=O)[C@H]1CC[C@H](NS(=O)(=O)c2ccc3nc(Cl)ccc3c2)CC1)c1ccc(F)cc1` [Example 42, (1r,4R)-4-(2-chloroquinoline-6-sulfonamido)-N-((R)-1-(4-fluorophenyl)ethyl)cyclohexanecarboxamide], the IC50 came to 94 nM.

`C[C@@H](NC(=O)[C@H]1CC[C@H](NS(=O)(=O)c2ccc3cc(-c4ccccc4Cl)[nH]c3c2)CC1)c1ccc(F)cc1` [Example 291, (1r,4R)-4-(2-(2-chlorophenyl)-1H-indole-6-sulfonamido)-N-((R)-1-(4-fluorophenyl)ethyl)cyclohexanecarboxamide]: the IC50 amounted to 17 nM.

`C[C@@H](NC(=O)[C@H]1CC[C@H](NS(=O)(=O)c2ccc3c(c2)nc(-c2ccccc2)n3C)CC1)c1ccc(F)cc1` [Example 4, (1r,4R)—N—((R)-1-(4-fluorophenyl)ethyl)-4-(1-methyl-2-phenyl-1H-benzo[d]imidazole-5-sulfonamido)cyclohexanecarboxamide]: the IC50 came out at 13 nM.

As for `COC(=O)N1CCNc2ccc(S(=O)(=O)NC3CCC(C(=O)NC(C)c4ccc(F)cc4)CC3)cc21` [Example 221, methyl 7-(N-((1R,4r)-4-((R)-1-(4-fluorophenyl)ethylcarbamoyl)cyclohexyl)sulfamoyl)-3,4-dihydroquinoxaline-1(2H)-carboxylate], the IC50 is < 10 nM.

As to `Cc1ccccc1-c1cc2ccc(S(=O)(=O)N[C@H]3CC[C@H](C(=O)N4CCOC[C@@H]4C4CC4)CC3)cc2[nH]1` [Example 481, N-((1S,4r)-4-((S)-3-cyclopropylmorpholine-4-carbonyl)cyclohexyl)-2-o-tolyl-1H-indole-6-sulfonamide], the IC50 amounted to 20 nM.

As for `CC(C)(C)OC(=O)N1CCN(C(=O)[C@H]2CC[C@H](NS(=O)(=O)c3ccc4c(c3)CCC4)CC2)[C@@H](c2ccccc2)C1` [Example 241, (S)-tert-butyl 4-((1r,4S)-4-(2,3-dihydro-1H-indene-5-sulfonamido)cyclohexanecarbonyl)-3-phenylpiperazine-1-carboxylate], the IC50 is 25 nM.

Regarding `C[C@@H](NC(=O)[C@]1(C)CC[C@@H](NS(=O)(=O)c2cnc3c(c2)NCCN3)CC1)c1ccc(F)cc1` [Example 197, (1r,4R)-N-((R)-1-(4-fluorophenyl)ethyl)-1-methyl-4-(1,2,3,4-tetrahydropyrido[3,2-b]pyrazine-7-sulfonamido)cyclohexanecarboxamide], the IC50 was 40 nM.

On to `Cn1ccc2cc(S(=O)(=O)N[C@H]3CC[C@H](C(=O)N[C@@H](CO)c4ccccc4)CC3)ccc21` [Example 671, (1r,4R)-N-((R)-2-hydroxy-1-phenylethyl)-4-(1-methyl-1H-indole-5-sulfonamido)cyclohexanecarboxamide], for which the IC50 is > 35000 nM.

As for `Cn1c(-c2ccc(CCC(=O)O)cc2)c(Cl)c2ccc(S(=O)(=O)N[C@H]3CC[C@H](C(=O)N4CCCCC4)CC3)cc21` [Example 361, 3-(4-(3-chloro-1-methyl-6-(N-((1r,4r)-4-(piperidine-1-carbonyl)cyclohexyl)sulfamoyl)-1H-indol-2-yl)phenyl)propanoic acid], the half-inhibitory concentration (IC50) was determined as 10 nM.
